Experimental data as given in ChEMBL document CHEMBL5104166, “Lead optimization of cathepsin K inhibitors for the treatment of Osteoarthritis” (Bioorg Med Chem Lett, 2022).

Experiments:
[1] = Unbound drug concentration in dog cartilage at 15 mg/kg, po for 4 days; format: ADME, organism-based, Canis lupus familiaris, Cartilage tissue; details: in vivo, 96 h, time 4 day
[2] = biological target: Cathepsin (L and K) (Homo sapiens) (UniProt P43235+P07711); assay: Selectivity ratio of IC50 for Cathepsin L (unknown origin) to IC50 for Cathepsin K (unknown origin); format: protein assay
Sequence of Cathepsin (L and K) (Homo sapiens) (P07711 whole entry, looked up, one chain of several): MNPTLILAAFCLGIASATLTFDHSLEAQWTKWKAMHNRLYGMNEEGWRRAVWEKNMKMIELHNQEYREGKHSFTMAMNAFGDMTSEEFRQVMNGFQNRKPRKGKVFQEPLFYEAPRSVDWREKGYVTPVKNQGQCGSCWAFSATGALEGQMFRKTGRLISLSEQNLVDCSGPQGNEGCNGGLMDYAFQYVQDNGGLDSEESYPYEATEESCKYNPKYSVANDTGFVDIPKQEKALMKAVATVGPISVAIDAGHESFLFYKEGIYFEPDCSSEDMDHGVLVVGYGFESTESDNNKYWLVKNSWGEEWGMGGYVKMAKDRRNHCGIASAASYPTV

[3] = Half life in rhesus monkey; format: ADME, Macaca mulatta; details: in vivo
[4] = Oral bioavailability in rhesus monkey; format: ADME, organism-based, Macaca mulatta; details: in vivo
[5] = biological target: Cathepsin (B and K) (Homo sapiens) (UniProt P43235+P07858); assay: Selectivity ratio of IC50 for Cathepsin B (unknown origin) to IC50 for Cathepsin K (unknown origin); format: protein assay
[6] = biological target: Cathepsin (V and K) (Homo sapiens) (UniProt P43235+O60911); assay: Selectivity ratio of IC50 for Cathepsin V (unknown origin) to IC50 for Cathepsin K (unknown origin); format: protein assay
Sequence of Cathepsin (V and K) (Homo sapiens) (O60911 whole entry, looked up, one chain of several): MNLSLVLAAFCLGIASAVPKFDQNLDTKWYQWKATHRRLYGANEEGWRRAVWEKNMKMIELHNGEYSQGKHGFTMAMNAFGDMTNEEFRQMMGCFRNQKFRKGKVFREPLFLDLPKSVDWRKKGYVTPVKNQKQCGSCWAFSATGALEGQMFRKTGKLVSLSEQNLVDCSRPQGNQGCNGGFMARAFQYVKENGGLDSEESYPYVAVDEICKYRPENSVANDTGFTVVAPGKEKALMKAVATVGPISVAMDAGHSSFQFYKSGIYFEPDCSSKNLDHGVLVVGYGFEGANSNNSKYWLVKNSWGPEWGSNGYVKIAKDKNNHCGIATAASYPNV

Canis familiaris [7] = assay: Anti-osteoarthritic activity in dog assessed as reduction in uCTX-1 level at 0.1 mg/kg, po for 4 days (reference value: 26.9%); format: functional; details: Canis lupus familiaris, 96 h, time 4 day
[8] = Plasma protein binding in dog assessed as unbound fraction at 15 mg/kg, po for 4 days; format: ADME, organism-based, Canis lupus familiaris; details: time 4 day
[9] = Clearance in rhesus monkey; format: ADME, Macaca mulatta; details: in vivo
[10] = Plasma concentration in dog at 15 mg/kg, po for 4 days; format: ADME, organism-based, Canis lupus familiaris; details: time 4 day
Cathepsin K [11] = biological target: T1, Cathepsin K (Homo sapiens, UniProt P43235); assay: Inhibition of human Cathepsin K
T1 sequence (P43235 whole entry): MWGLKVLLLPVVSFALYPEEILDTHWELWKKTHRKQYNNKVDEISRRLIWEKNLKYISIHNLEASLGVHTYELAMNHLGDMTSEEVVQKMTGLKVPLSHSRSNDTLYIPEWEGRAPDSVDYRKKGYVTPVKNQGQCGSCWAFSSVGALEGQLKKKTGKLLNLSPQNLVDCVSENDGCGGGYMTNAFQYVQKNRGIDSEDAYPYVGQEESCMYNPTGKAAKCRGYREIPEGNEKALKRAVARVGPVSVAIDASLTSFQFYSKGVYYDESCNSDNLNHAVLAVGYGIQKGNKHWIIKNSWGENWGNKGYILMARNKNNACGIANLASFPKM

Canis familiaris [12] = assay: Anti-osteoarthritic activity in dog assessed as reduction in uCTX-1 level at 15 mg/kg, po for 4 days (reference value: 26.9%); format: functional; details: Canis lupus familiaris, 96 h, time 4 day
[13] = biological target: Cathepsin (S and K) (Homo sapiens) (UniProt P25774+P43235); assay: Selectivity ratio of IC50 for Cathepsin S (unknown origin) to IC50 for Cathepsin K (unknown origin); format: protein assay
Sequence of Cathepsin (S and K) (Homo sapiens) (P25774 whole entry, looked up, one chain of several): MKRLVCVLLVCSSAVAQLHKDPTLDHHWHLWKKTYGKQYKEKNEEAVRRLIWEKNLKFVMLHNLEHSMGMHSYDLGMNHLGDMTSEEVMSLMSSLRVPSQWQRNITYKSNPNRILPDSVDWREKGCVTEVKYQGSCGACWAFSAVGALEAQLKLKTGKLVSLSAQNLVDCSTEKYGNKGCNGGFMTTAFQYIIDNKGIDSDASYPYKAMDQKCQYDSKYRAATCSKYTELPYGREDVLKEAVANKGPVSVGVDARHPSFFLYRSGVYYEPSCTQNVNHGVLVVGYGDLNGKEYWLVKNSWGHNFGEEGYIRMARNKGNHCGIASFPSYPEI

[14] = Oral bioavailability in rat; format: ADME, organism-based; details: in vivo
Canis familiaris [15] = assay: Anti-osteoarthritic activity in dog assessed as reduction in uCTX-1 level at 0.3 mg/kg, po for 4 days (reference value: 26.9%); format: functional; details: Canis lupus familiaris, 96 h, time 4 day
[16] = Half life in dog; format: ADME, Canis lupus familiaris; details: in vivo
Homo sapiens = species on record: Homo sapiens; assay: Selectivity ratio of IC50 for Cathepsin F (unknown origin) to IC50 for Cathepsin K (unknown origin)
[17] = Intrinsic clearance in rat liver microsomes; format: ADME, Microsome; details: read-out: CLH
[18] = Drug concentration in dog cartilage at 15 mg/kg, po for 4 days; format: ADME, organism-based, Canis lupus familiaris, Cartilage tissue; details: time 4 day, read-out: Ct
[19] = Clearance in dog; format: ADME, Canis lupus familiaris; details: in vivo
Canis familiaris [20] = assay: Anti-osteoarthritic activity in dog assessed as reduction in uCTX-1 level at 0.03 mg/kg, po for 4 days (reference value: 26.9%); format: functional; details: Canis lupus familiaris, 96 h, time 4 day
[21] = Half life in rat; format: ADME; details: in vivo
[22] = Clearance in rat; format: ADME; details: in vivo
[23] = Oral bioavailability in dog; format: ADME, organism-based, Canis lupus familiaris; details: in vivo
[24] = Unbound plasma concentration in dog at 15 mg/kg, po for 4 days; format: ADME, organism-based, Canis lupus familiaris; details: in vivo, 96 h, time 4 day
Cathepsin K [25] = biological target: Cathepsin K (Homo sapiens, UniProt P43235); assay: Inhibition of humanized-rabbit Cathepsin K

## N#CC1(NC(=O)[C@@H]2CCCC[C@H]2c2oc(-c3ccc(F)cc3)nc2-c2ccc(N3CCS(=O)(=O)CC3)cc2)CC1
[1]
  Drug uptake(free): 0.21 µM
[2]
  Ratio IC50: > 20000
[3]
  half-life: 2.3 h
[4]
  bioavailability: 55%
[5]
  Ratio IC50: > 20000
[6]
  Ratio IC50: > 20000
Canis familiaris [7]
  inhibition in vivo at 0.1 mg/kg: 47.7%
[8]
  fraction unbound at 96 h: 0.047
[9]
  clearance: 18.5 mL/min/kg
[10]
  concentration at 96 h: 3980 nM
Cathepsin K [11]
  IC50: 0.5 nM
Canis familiaris [12]
  inhibition in vivo at 15 mg/kg: 91.4%
[13]
  Ratio IC50: > 20000
[14]
  bioavailability: 33%
Canis familiaris [15]
  inhibition in vivo at 0.3 mg/kg: 81.1%
[16]
  half-life: 4.1 h
Homo sapiens
  Ratio IC50: 1460
[17]
  CLint scaled: < 30 mL/min/kg
[18]
  concentration at 96 h: 220 nM
[19]
  clearance: 3.1 mL/min/kg
Canis familiaris [20]
  inhibition in vivo at 0.03 mg/kg: 4.5%
[21]
  half-life: 1.5 h
[22]
  clearance: 13 mL/min/kg
[23]
  bioavailability: 38%
[24]
  Cp(f): 190 nM

## N#CC1(NC(=O)[C@@H]2CC(F)(F)CC[C@H]2c2nn(-c3ccc(F)cc3)cc2-c2ccc(N3CCS(=O)(=O)CC3)cc2)CC1
Cathepsin K [25]
  IC50: 0.5 nM
Homo sapiens
  Ratio IC50: 50
[17]
  CLint scaled: < 30 mL/min/kg

## CS(=O)(=O)c1ccc(-c2cn(CC(F)(F)F)nc2[C@@H]2CCC(Cl)(Cl)C[C@H]2C(=O)NC2(C#N)CC2)cc1
[2]
  Ratio IC50: 1710
[5]
  Ratio IC50: 5560
[6]
  Ratio IC50: 714
Cathepsin K [11]
  IC50: 1.8 nM
[13]
  Ratio IC50: 1360
Homo sapiens
  Ratio IC50: 40

## N#CC1(NC(=O)[C@@H]2CC(Cl)(Cl)CC[C@H]2c2nn(CC(F)(F)F)cc2-c2ccc(N3CCS(=O)(=O)CC3)cc2)CC1
Cathepsin K [25]
  IC50: 0.5 nM
Homo sapiens
  Ratio IC50: 314

## N#CC1(NC(=O)[C@@H]2CC(F)(F)CC[C@H]2c2nn(CC(F)(F)F)cc2-c2ccc(N3CCS(=O)(=O)CC3)cc2)CC1
Cathepsin K [11]
  IC50: 0.7 nM
Homo sapiens
  Ratio IC50: 380

## N#CC1(NC(=O)[C@@H]2CCCC[C@H]2c2nn(CC3CC3)cc2-c2ccc(N3CCS(=O)(=O)CC3)cc2)CC1
Cathepsin K [11]
  IC50: 5.3 nM
Homo sapiens
  Ratio IC50: 1180

## N#CC1(NC(=O)[C@@H]2CCCC[C@H]2c2nc(-c3ccc(F)cc3)sc2-c2ccc(N3CCS(=O)(=O)CC3)cc2)CC1
Cathepsin K [11]
  IC50: 0.6 nM
Homo sapiens
  Ratio IC50: 1430
[17]
  CLint scaled: 55.9 mL/min/kg

## N#CC1(NC(=O)[C@@H]2CC(Cl)(Cl)CC[C@H]2c2nn(CC(F)(F)F)cc2-c2ccc(C(=O)N3CCOCC3)cc2)CC1
Cathepsin K [25]
  IC50: 1 nM
Homo sapiens
  Ratio IC50: 246

## N#CC1(NC(=O)[C@@H]2CCCC[C@H]2c2nn(-c3ccc(F)cc3)cc2-c2ccc(N3CCS(=O)(=O)CC3)cc2)CC1
Cathepsin K [11]
  IC50: 0.5 nM
Homo sapiens
  Ratio IC50: 1000
[17]
  CLint scaled: 40.5 mL/min/kg

## N#CC1(NC(=O)[C@@H]2CC(F)(F)CC[C@H]2c2nn(CC(F)(F)F)cc2-c2ccc(-c3ncco3)cc2)CC1
Cathepsin K [25]
  IC50: 1 nM
Homo sapiens
  Ratio IC50: 62

## CS(=O)(=O)N1CC(c2ccc(-c3cn(CC(F)(F)F)nc3[C@@H]3CCC(F)(F)C[C@H]3C(=O)NC3(C#N)CC3)cc2)C1
Cathepsin K [25]
  IC50: 0.6 nM
Homo sapiens
  Ratio IC50: 82

## COc1cccc(-n2cc(-c3ccc(N4CCS(=O)(=O)CC4)cc3)c([C@@H]3CCCC[C@H]3C(=O)NC3(C#N)CC3)n2)c1
Cathepsin K [11]
  IC50: 0.7 nM
Homo sapiens
  Ratio IC50: 716
[17]
  CLint scaled: 244 mL/min/kg

## N#CC1(NC(=O)[C@@H]2CCCC[C@H]2c2nn(CC(F)(F)F)cc2-c2ccc(N3CCS(=O)(=O)CC3)cc2)CC1
Cathepsin K [11]
  IC50: 6.9 nM
Homo sapiens
  Ratio IC50: 1280
